Measured values published in the supplement of paper PMC7840683.
Counter-ions that a name gives are not always drawn. ± gives the standard deviation of the averaged measurements.

Test system: HepaRG
Assay: LDH release cytotoxicity, % of total lysis control; higher = more cytotoxic
Settings: 48 h
How it was run: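 Single-lot HepaRG cells in collagen I-coated 96-well plates were treated for 48 h in serum-free induction medium containing 0.5% DMSO with test chemicals in eight-point half-log series up to 100 µM. For total lysis, wells received 0.1% Triton X. LDH in 50 µL spent medium was assayed by resorufin fluorescence with CytoTox-ONE. Percent cytotoxicity was normalized to the on-plate vehicle and total lysis controls, with duplicates averaged.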

| SMILES | LDH release cytotoxicity (0.03162 µM) [%] | LDH release cytotoxicity (0.1 µM) [%] | LDH release cytotoxicity (0.3162278 µM) [%] | LDH release cytotoxicity (1 µM) [%] | LDH release cytotoxicity (3.16228 µM) [%] | LDH release cytotoxicity (10 µM) [%] | LDH release cytotoxicity (31.6228 µM) [%] | LDH release cytotoxicity (100 µM) [%] | other results |
| --- | --- | --- | --- | --- | --- | --- | --- | --- | --- |
| Cc1ccc(N)c(N)c1 [3,4-Diaminotoluene] |  |  |  |  |  |  |  |  | LDH release cytotoxicity (0.0317809 µM): -0.96 ± 0.44%; LDH release cytotoxicity (0.1005 µM): -0.403 ± 1.1%; LDH release cytotoxicity (0.317809 µM): -1.27 ± 0.55%; LDH release cytotoxicity (1.005 µM): -0.97 ± 1%; LDH release cytotoxicity (3.17809 µM): -0.641 ± 0.42%; LDH release cytotoxicity (10.05 µM): -0.448 ± 0.68%; LDH release cytotoxicity (31.7809 µM): -0.415 ± 1.9%; LDH release cytotoxicity (100.5 µM): 0.704 ± 1.1% |
| Oc1cc(Cl)ccc1Oc1ccc(Cl)cc1Cl [Triclosan] |  |  |  |  |  |  |  |  | LDH release cytotoxicity (0.0322552 µM): -1.38 ± 0.38%; LDH release cytotoxicity (0.102 µM): -2.17 ± 0.73%; LDH release cytotoxicity (0.322552 µM): -2.07 ± 0.23%; LDH release cytotoxicity (1.02 µM): -1.47 ± 0.84%; LDH release cytotoxicity (3.2255232 µM): -2.05 ± 1.2%; LDH release cytotoxicity (10.2 µM): -1.6 ± 1.3%; LDH release cytotoxicity (32.2552 µM): -1.09 ± 1.9%; LDH release cytotoxicity (102 µM): -1.09 ± 0.31% |
| OCC1CO1 (configuration not stated) [Glycidol] | -0.883 ± 0.53 | -1.28 ± 0.094 | -0.409 ± 0.45 | -1.25 ± 0.47 | -0.452 ± 0.0064 | -0.678 ± 0.18 | -0.342 ± 0.43 | 1.57 ± 0.042 |  |
| CC1(C)NC(=O)NC1=O [5,5-Dimethylhydantoin] | -2.18 ± 0.37 | -2.28 ± 1 | -2.14 ± 0.96 | -3.5 ± 0.27 | -1.38 ± 0.42 | -1.82 ± 0.26 | -1.07 ± 0.056 | 1.93 ± 1.1 |  |
| O=C1NS(=O)(=O)c2ccccc21 [Sodium saccharin hydrate] | -0.893 ± 0.069 | -1.1 ± 0.76 | -0.541 ± 0.034 | -1.22 ± 0.43 | -1.77 ± 0.0062 | -0.645 ± 0.66 | -0.345 ± 0.15 | 1.33 ± 0.048 |  |
| CC1CC(C)C(=O)C(C(O)CC2CC(=O)NC(=O)C2)C1 (configuration not stated) [Cycloheximide] | -0.96 ± 0.28 | -0.691 ± 0.23 | -1.8 ± 0.17 | -1.99 ± 0.4 | -1.19 ± 0.83 | 3.47 ± 0.21 | 24 ± 0.46 | 61.9 ± 1.8 |  |
| CCC(=CC(N=O)C(N)=O)C(C)[N+](=O)[O-] (configuration not stated) | -0.841 ± 0.13 | -1.13 ± 0.46 | -0.143 ± 1 | -0.487 ± 0.72 | -0.165 ± 0.14 | 0.0592 ± 0.5 | 0.411 ± 0.23 | 1.12 ± 0.8 |  |
| CC1(C)CCC(=Cc2ccc(Cl)cc2)C1(O)Cn1cncn1 (configuration not stated) [Triticonazole] |  |  |  |  |  |  |  |  | LDH release cytotoxicity (0.0314647 µM): -0.271 ± 1.9%; LDH release cytotoxicity (0.0995 µM): -0.849 ± 0.067%; LDH release cytotoxicity (0.3146466 µM): -0.205 ± 0.74%; LDH release cytotoxicity (0.995 µM): -1.22 ± 0.81%; LDH release cytotoxicity (3.14647 µM): -0.364 ± 0.038%; LDH release cytotoxicity (9.95 µM): 0.229 ± 0.84%; LDH release cytotoxicity (31.4647 µM): 1.76 ± 0.041%; LDH release cytotoxicity (99.5 µM): 5.55 ± 0.43% |
| Oc1ccccc1 [Phenol] | -1.29 ± 0.31 | -1.84 ± 0.82 | -1.69 ± 0.2 | -1.85 ± 0.26 | -1.67 ± 0.035 | -1.64 ± 0.055 | -1.18 ± 0.073 | 0.202 ± 0.087 |  |
| CC=Cc1ccc(O)c(OC)c1 [Isoeugenol] | -2.86 ± 1.2 | -2.42 ± 0.51 | -2.55 ± 0.96 | -3.05 ± 1.7 | -2.354 ± 0.0053 | -2.16 ± 0.6 | -2.4 ± 0.96 | -1.84 ± 1.7 |  |
| CCCCC(CC)COC(=O)c1ccc(C(=O)OCC(CC)CCCC)c(C(=O)OCC(CC)CCCC)c1 (configuration not stated) [Tris(2-ethylhexyl) trimellitate] | -1.9 ± 0.9 | -0.779 ± 0.11 | -1.6 ± 0.82 | -0.598 ± 1.5 | -1.18 ± 0.4 | -0.738 ± 0.28 | -0.634 ± 0.44 | 5.97 ± 0.36 |  |
| CCC(C)(C)C(=O)OC1=C(c2ccc(Cl)cc2Cl)C(=O)OC12CCCCC2 [Spirodiclofen] | -0.904 ± 0.1 | -1.21 ± 1.1 | -0.287 ± 0.5 | -1.32 ± 0.39 | -1.74 ± 0.89 | 0.0779 ± 0.41 | -1.05 ± 0.14 | 0.552 ± 0.59 |  |
| O=C(O)C(F)(F)C(F)(F)C(F)(F)C(F)(F)C(F)(F)C(F)(F)C(F)(F)F [Ammonium perfluorooctanoate] | -2.46 ± 0.051 | -2 ± 0.26 | -1.7 ± 0.71 | -2.4 ± 0.45 | -1.55 ± 0.62 | -1.1 ± 0.38 | -0.665 ± 0.52 | 5.278 ± 0.027 |  |
| CCOCN(C(=O)CCl)c1c(C)cccc1CC [Acetochlor] | -0.907 ± 0.26 | -1.94 ± 0.45 | -0.877 ± 0.019 | -0.999 ± 0.47 | -1.55 ± 0.19 | -0.606 ± 0.56 | 0.268 ± 0.58 | 56.1 ± 2.4 |  |
| c1ccc2c(c1)Nc1ccccc1S2 [Phenothiazine] | -1.44 ± 0.67 | -0.242 ± 0.75 | -1.08 ± 1 | -2.16 ± 0.13 | -1.87 ± 0.84 | -1.1 ± 0.59 | 0.496 ± 0.65 | 3.43 ± 0.83 |  |
| CCCCC1CN(CC2CCOCC2)C(=O)OC12CCN(C1(C)CCN(C(=O)c3c(C)ncnc3C)CC1)CC2 (configuration not stated) |  |  |  |  |  |  |  |  | LDH release cytotoxicity (0.02846 µM): -1.26 ± 0.92%; LDH release cytotoxicity (0.09 µM): -1.45 ± 1.3%; LDH release cytotoxicity (0.284605 µM): -0.87 ± 0.88%; LDH release cytotoxicity (0.9 µM): -1.55 ± 0.49%; LDH release cytotoxicity (2.84605 µM): -1.48 ± 0.091%; LDH release cytotoxicity (9 µM): -1.68 ± 0.22%; LDH release cytotoxicity (28.4605 µM): -0.822 ± 0.31%; LDH release cytotoxicity (90 µM): -0.451 ± 0.11% |
| CCCCCOC(=O)c1ccccc1C(=O)OCCCCC [Dipentyl phthalate] | -0.338 ± 1.3 | -1.03 ± 0.79 | -1.76 ± 0.55 | -0.0572 ± 0.49 | 10.4 ± 0.42 | 55.1 ± 3.3 | 47.6 ± 0.78 | 43.3 ± 0.68 |  |
| CCC(=NOCC=CCl)C1C(=O)CC(C2CCOCC2)CC1=O (configuration not stated) [Tepraloxydim] | -1.86 ± 0.12 | -1.65 ± 0.29 | -1.97 ± 0.062 | -1.72 ± 0.081 | -1.7 ± 0.22 | -1.32 ± 0.12 | -0.75 ± 0.13 | -0.617 ± 0.06 |  |
| CCc1ccc(CCOc2ccc(CC3SC(=O)NC3=O)cc2)nc1 (configuration not stated) [Pioglitazone hydrochloride] | -0.765 ± 0.13 | -1.11 ± 0.35 | -1.39 ± 0.062 | -1.98 ± 0.67 | -2.26 ± 0.28 | -3.4 ± 0.42 | -3.94 ± 0.23 | -0.63 ± 0.3 |  |
